# According to patent US11633506B2, “Using targeted radiotherapy (TRT) to drive anti-tumor immune response to immunotherapies” (Wisconsin Alumni Research Foundation, priority 2016, dated 2023):
# Entries after “also recorded” stand apart in the source; their conditions may differ.
# How the values were obtained:
# B78 melanoma = assay: ^124I-NM404 PET/CT imaging; assay type: in vivo, mouse; conditions: IV; ~200 mm^3 B78 tumor; image at 71 h
# Text: FIG. 5 is an image showing selective uptake of ^124I-NM404 by B78 melanoma. A mouse bearing a ˜200 mm^3 B78 tumor received IV ^124I-NM404 and had serial PET/CT scans done.
# ^131I-NM404 has shown selective uptake in vitro in >95% of tumor lines (human and mouse), with poor uptake by non-malignant cells, and with similar tumor specificity seen in vivo. This includes selective uptake in vivo with the B78 tumor (FIG. 5). In our preliminary dosimetry study, we gave ^124I-NM404 to C57BL/6 mice and characterized the time course of TRT exposure by serial PET/CT imaging (as in FIG. 5). […] After those four weeks, the remaining TRT dose to the B78 tumor would be less than 0.25 Gy. We will replicate the data we obtained in our 2-tumor model using xRT (FIG. 3), but use the lowest possible dose of targeted ^131I-NM404 TRT to enable effective elimination of tumor-induced tolerance at all sites of distant disease. However, unlike xRT, which delivers all dose in minutes and is then done, TRT deposits dose over time, depending upon both the biological and physical half-life of the targeted isotope (8 day t½ for ^131I). We want an initial TRT effect at the distant tumor sites to eradicate immune tolerance; however we want the immunosuppressive TRT effect to then be minimal when we give the IT-IC to induce ADCC and the in situ vaccine anti-tumor effects. […]
# Tregs = assay: Treg depletion by diphtheria toxin in DEREG mice with primary and secondary B78 tumors treated with xRT+IT-IC; assay type: in vivo; conditions: IP diphtheria toxin vs PBS, with xRT+IT-IC to primary tumor
# [1] = tested on: in vivo cancer and cancer stem cell models; conditions: regardless of anatomic location; cited from earlier work
# B78 tumors = assay: low dose ^131I-NM404 TRT: blood counts and tumor infiltrating T cells; assay type: in vivo, C57BL/6 mice
# Text: (§1) In order to then determine if a ˜2 Gy equivalent dose of ^131I-NM404 would have the desired effects against intratumor lymphoid cells (particularly Tregs), 2 separate approaches have been pursued.
# A second approach involved treating mice with B78 tumors with these same doses of ^131I-NM404. […] This observation again supports our hypothesis that it will be feasible to use TRT to overcome Treg-mediated CIT in order to rescue an in situ vaccine effect in animals bearing multiple tumors.
# In most clinical scenarios, it is not feasible to deliver external beam, even low dose, to all tumor sites without eliciting marked bone marrow depletion and leukopenia that would result in immunosuppression. Here we tested whether TRT could be administered systemically to specifically deplete tumor infiltrating suppressive immune cells (Tregs), without triggering systemic immune cell depletion and leukopenia. Dosimetry studies in this B78 melanoma tumor model were performed using positron-emitting ^124I-NM404 confirm tumor-selective uptake of NM404 (FIG. 12A). C57BL/6 mice bearing B78 tumors were treated with 60 μCi ^131I-NM404. This activity approximates the amount of ^131I-NM404 necessary to deliver ˜2 Gy TRT to a B78 tumor. Peripheral blood and tumor samples were collected in untreated control mice (C) and at 8 day intervals (T1=d8, T2=d16, T3=d24, T4=d32) thereafter.
# B78 tumor [2] = assay: ^131I-NM404 with xRT+IT-IC, single B78 tumor; assay type: in vivo, mice
# Text: (§2) Using the dosimetry calculations from our preliminary data, we estimated that a dose of 3 μCi of ^131I-NM404, should deliver an equivalent of ˜0.2 Gy to the tumor site, a dose that we hypothesized should not be immunosuppressive and should not prevent lymphocyte-mediated tumor destruction. As noted above, this is the dose we estimated would remain yet to be delivered 28 days after an initial ^131I-NM404 dose of 60 μCi. We thus evaluated groups of mice bearing a single 200 mm^3 B78 tumor. On day 0, all mice got 12 Gy xRT to their tumor, and on days 6-10, all got 50 mcg/d of IT-IC. One group also got 3 μCi of ^131I-NM404 on d-0 (˜0.2 Gy). […] We thus hypothesize that if we use an initial dose of 60 μCi of ^131I-NM404 TRT on day-22, it would effectively block the tolerogenic effect of distant tumors, yet enable xRT on day 0 and IT-IC on days 6-10 (28 d after the TRT) to the first tumor to function as an in situ vaccine, inducing an adaptive response that then eradicates all tumors.
# Using the data summarized in Examples 7 and 8, a study was done in mice bearing 2 separate B78 tumors. Mice received the estimated required systemic ^131I-NM404 dose followed by xRT and local immunotherapy to the in situ vaccine site. […]
# B78 tumor [3] = assay: Monte Carlo dosimetry from serial ^124I-NM404 PET/CT; assay type: in vivo, C57BL/6 mice
# Text: (§3) ^131I-NM404 has shown selective uptake in vitro in >95% of tumor lines (human and mouse), with poor uptake by non-malignant cells, and with similar tumor specificity seen in vivo. This includes selective uptake in vivo with the B78 tumor (FIG. 5). In our preliminary dosimetry study, we gave ^124I-NM404 to C57BL/6 mice and characterized the time course of TRT exposure by serial PET/CT imaging (as in FIG. 5). […] After those four weeks, the remaining TRT dose to the B78 tumor would be less than 0.25 Gy. We will replicate the data we obtained in our 2-tumor model using xRT (FIG. 3), but use the lowest possible dose of targeted ^131I-NM404 TRT to enable effective elimination of tumor-induced tolerance at all sites of distant disease. However, unlike xRT, which delivers all dose in minutes and is then done, TRT deposits dose over time, depending upon both the biological and physical half-life of the targeted isotope (8 day t½ for ^131I). We want an initial TRT effect at the distant tumor sites to eradicate immune tolerance; however we want the immunosuppressive TRT effect to then be minimal when we give the IT-IC to induce ADCC and the in situ vaccine anti-tumor effects. This is essential to allow full tumor destruction at all sites.
# as §2
# Based on the preliminary data described above in Examples 1-4, studies have been done to move these concepts into in vivo testing using TRT. […] This was done in order to estimate the amount of ^131I-NM404 that would be needed to approximate ˜2 Gy of xRT.
# In most clinical scenarios, it is not feasible to deliver external beam, even low dose, to all tumor sites without eliciting marked bone marrow depletion and leukopenia that would result in immunosuppression. […]
# B78 tumor tissue = assay: RT-PCR gene expression of immune signatures in tumor tissue after TRT; assay type: in vivo, mice; conditions: TRT alone; pretreatment and 8 d intervals
# Description: Finally, to characterizing the immunological effects of TRT on the immune cells within tumors, we have treated B78 bearing mice with ^131I-NM404 and collected tumor tissue at pretreatment and at half-life (8 d) intervals thereafter. These tissues were then analyzed by RT-PCR for gene expression of a panel of immune signatures.
# [4] = tested on: tumor lines (human and mouse); assay: selective uptake in vitro in tumor lines; assay type: cell-based; conditions: poor uptake by non-malignant cells
# Text: as §3
# [5] = tested on: radiosensitive lymphoma tumor; assay: ^131I-NM404 in mice bearing a radiosensitive lymphoma tumor; assay type: in vivo; conditions: ~2 Gy equivalent dose
# Text: as §1
# two B78 tumors = assay: ^131I-NM404 + xRT + IT-IC in mice bearing two B78 tumors; assay type: in vivo, C57BL/6 mice; conditions: 60 μCi day 1, 12 Gy xRT to primary day 8, IT-IC days 13-17
# Text: Using the data summarized in Examples 7 and 8, a study was done in mice bearing 2 separate B78 tumors. Mice received the estimated required systemic ^131I-NM404 dose followed by xRT and local immunotherapy to the in situ vaccine site. […] Further testing, and modification of some of the experimental variables, is underway in order to try to maximize the desired effect of blocking CIT without suppressing the in situ vaccine effect. More details regarding these experiments are disclosed in Example 10 below.
# Given the capacity of low dose ^131I-NM404 TRT to deplete tumor-infiltrating Tregs without rendering a mouse leukopenic, we tested whether low dose ^131I-NM404 might effectively overcome concomitant immune tolerance. C57BL/6 mice bearing two B78 tumors were treated with 60-μCi ^131I-NM404 on day 1 (NM404), as indicated. After one half-life (day 8), animals received 12 Gy xRT or no xRT to the primary tumor (in situ vaccine site). Control mice receiving no ^131I-NM404 were treated to the secondary tumor as indicated (0, 2, or 12 Gy). Mice received daily IT injections of IC to the primary tumor (in situ vaccine site), as indicated, on days 13-17.
# [6] = 3 and 4 half-life time points, vs untreated baseline and 2nd half-life
compound,measurement,setting,value
C[N+](C)(C)CCOP(=O)([O-])OCCCCCCCCCCCCCCCCCCc1ccc([124I])cc1 [^124I-NM404],tumor uptake on PET/CT,B78 melanoma,Excellent tumor uptake; also recorded: selective uptake by the tumor with some residual background uptake by the heart and liver
diphtheria toxin,primary and secondary tumor response,Tregs,improved primary (FIG. 9B) and secondary (FIG. 9C) tumor response
C[N+](C)(C)CCOP(=O)([O-])OCCCCCCCCCCCCCCCCCCc1ccc([131I])cc1 [^131I-NM404],tumor uptake / targeting across in vivo models,[1],nearly universal tumor targeting properties in over 60 in vivo cancer and cancer stem cell models
same,intratumor effector CD8+ T cells,B78 tumors; 2 half-life time point,decrease in intratumor effector CD8+ T cells
same,intratumor FoxP3+ Tregs,B78 tumors; 2 half-lifes after TRT,decrease in intratumor FoxP3+ Tregs
same,intratumor CD8+ effector T cells,B78 tumors; [6],increase in intratumor CD8+ effector T cells
same,intratumor Tregs,B78 tumors; [6],further decline in the levels of intratumor Tregs
same,level of tumor infiltrating CD8+ effector T cells,"B78 tumors; 60 μCi, d8-d32",did not significantly affect the level of tumor infiltrating CD8+ effector T cells
same,tumor infiltrating FoxP3+ Tregs,"B78 tumors; 60 μCi, d8-d32",significantly depleted
same,systemic leukopenia,"B78 tumors; 60 μCi, peripheral blood d8-d32",did not result in any significant systemic leukopenia
same,circulating lymphoid cells (peripheral complete blood counts),B78 tumors; ~2 Gy equivalent dose,did not cause either substantial shrinkage/slowing of the B78 tumor or any evident depletion of circulating lymphoid cells
same,B78 tumor growth,"B78 tumors; ~2 Gy equivalent dose, TRT alone",did not cause either substantial shrinkage/slowing of the B78 tumor
same,systemic lymphopenia (peripheral complete blood count),"B78 tumors; ~2 Gy equivalent dose, half-life (8 d) intervals",no systemic lymphopenia at any time point
same,tumor eradication by xRT+IT-IC with vs without TRT,"B78 tumor [2]; 3 μCi on d-0 (~0.2 Gy), 12 Gy xRT day 0, IT-IC days 6-10",same degree of tumor eradication; also recorded: equally effective
same,local in situ vaccine effect,"B78 tumor [2]; estimated required systemic TRT dose, mice with one tumor",did not appear to interfere with the local in situ vaccine effect
same,dose delivered to the tumor site,B78 tumor [3]; 3 μCi,~0.2 Gy
same,remaining TRT dose to the B78 tumor,"B78 tumor [3]; after four weeks, initial 60 μCi",less than 0.25 Gy
same,activity necessary to deliver ~2 Gy TRT to a B78 tumor,"B78 tumor [3]; mouse, in vivo",~60 μCi
same,activity needed to deliver ~3 Gy to an established B78 tumor,B78 tumor [3]; over a four week period of decay,~60 μCi
same,gene expression of immune signatures,B78 tumor tissue,striking changes in expression of tumor cell markers of immunsusceptibility and in genes normally expressed only by immune cells
same,tumor lines with selective uptake in vitro,[4],> 95%
same,lymphoid tumor response,[5],potent lymphoid tumor shrinkage/dose-dependent inhibition
same,concomitant immune tolerance (CIT) / primary and secondary tumor response,two B78 tumors,did appear to attenuate CIT; also recorded: effectively overcomes concomitant immune tolerance and rescues the systemic anti-tumor effect of in situ vaccination
"C[N+](C)(C)CCOP(=O)([O-])OCCCCCCCCCCCCCCCCCCc1ccc(I)cc1 [NM404, 18-(p-iodophenyl)octadecyl phosphocholine]",tumor uptake / targeting across in vivo models,[1],near universal tumor uptake in all but three of over 70 in vivo models
